The values below come from PubChem BioAssay (NCI).

Test systems include CCRF-CEM leukemia; K-562 leukemia; HCT-15 colon; MALME-3M melanoma; TK-10 renal; U251 CNS; 786-0 renal; HCT-116 colon; HL-60(TB) leukemia.
Holding throughout (assay): growth of human tumour cells (NCI), 48 h

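Grown in 96-well plates, cells were treated for 48 hours with each compound at five concentrations. Insufficient inhibition: endpoint recorded as highest concentration tested. At the GI50, growth is halved. TGI: concentration producing complete growth inhibition.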

In the case of `Cc1cccc(C(=O)c2cccc3ccccc23)c1C(=O)O`, the TGI in the test with CCRF-CEM leukemia, with K-562 leukemia, with HCT-15 colon, with MALME-3M melanoma, in the test on TK-10 renal and in the test on U251 CNS was over 100 µM throughout. In addition, the TGI in the test with 786-0 renal and with HCT-116 colon was over 100 µM in each case.

In the case of `c1ccc(SC2(Sc3ccccc3)CCCC2)cc1`, the TGI in the test with CCRF-CEM leukemia, in the test with K-562 leukemia, with HCT-15 colon, in the test on HL-60(TB) leukemia, in the test on TK-10 renal and in the test with U251 CNS was over 100 µM throughout. Also, the TGI in the test on 786-0 renal and in the test with HCT-116 colon was over 100 µM in each case.

In the case of `CCCCCCCCCCCOC(=S)NC(C)C`, the TGI in the test with CCRF-CEM leukemia was 61.4 µM; in the test on K-562 leukemia, 46.4 µM; in the test on HCT-15 colon, 31.8 µM; in the test with HL-60(TB) leukemia, 39.1 µM; in the test with MALME-3M melanoma, 49.5 µM; in the test on TK-10 renal it was 86.1 µM. The TGI is 30.2 µM with U251 CNS, 39.3 µM with 786-0 renal and 31.3 µM in the test with HCT-116 colon.

In the case of `Cc1ccc(C(=O)O/N=C2/CCCC/C2=C\c2ccccc2)cc1`, the TGI with CCRF-CEM leukemia was over 100 µM; with K-562 leukemia, 38.6 µM; with HCT-15 colon it was over 100 µM; with HL-60(TB) leukemia it was 45.1 µM; in the test with MALME-3M melanoma it was over 100 µM; in the test with TK-10 renal it was over 100 µM. Besides, the values for the TGI in the test on U251 CNS, with 786-0 renal and with HCT-116 colon were over 100 µM, over 100 µM and 32.7 µM, respectively.

Consider `Nc1nc(CCC(=O)Nc2cccc(C(F)(F)F)c2)cc(-c2cccc3ccccc23)n1`, for which the TGI in the test with CCRF-CEM leukemia, in the test on K-562 leukemia, in the test with HCT-15 colon, with HL-60(TB) leukemia, with MALME-3M melanoma and with TK-10 renal was over 100 µM in each case. Moreover, the TGI in the test with U251 CNS, in the test with 786-0 renal and in the test with HCT-116 colon was over 100 µM in each case.

For the molecule `CC1=CCC[C@@]2(C)C(CC[C@@H]2C(C)/C=C/C(C)C)c2ccc(cc2C(=O)O)C[C@@H](O)CC1` (some centres not stated), the TGI stood at 20.8 µM with CCRF-CEM leukemia; 26.4 µM in the test on K-562 leukemia; 18.5 µM with HCT-15 colon; 31.2 µM in the test with HL-60(TB) leukemia; 37.7 µM in the test on MALME-3M melanoma; 25.1 µM in the test on TK-10 renal. For the same molecule, the TGI with U251 CNS stood at 16 µM; in the test on 786-0 renal, 27.9 µM; with HCT-116 colon it was 20.7 µM.

On to `Cc1ccc(C)c(NC(=O)C(=O)CC(=O)C2CCOC2=O)c1` (configuration not stated), for which the TGI in the test on CCRF-CEM leukemia, in the test on K-562 leukemia, in the test on HCT-15 colon, in the test with HL-60(TB) leukemia, in the test with MALME-3M melanoma and in the test with TK-10 renal was over 100 µM each time. Further, the TGI in the test on U251 CNS, in the test with 786-0 renal and with HCT-116 colon was over 100 µM in each case.

In the case of `CCC[CH2][Sn]([CH2]CCC)([O]C(=O)c1c(F)cccc1F)[O]C(=O)c1c(F)cccc1F`, the GI50 was 0.355 µM with K-562 leukemia; 1.09 µM with HCT-15 colon; 0.378 µM in the test on HL-60(TB) leukemia; 0.462 µM in the test on MALME-3M melanoma; 0.956 µM in the test with TK-10 renal; 0.443 µM in the test with U251 CNS. Also, the GI50 in the test on 786-0 renal is 0.768 µM; in the test with HCT-116 colon it was 1.02 µM. Further, the TGI is over 100 µM in the test with K-562 leukemia; 2.28 µM with HCT-15 colon; over 100 µM in the test with HL-60(TB) leukemia; 1.8 µM in the test with MALME-3M melanoma; 2.13 µM in the test with TK-10 renal; 1.6 µM with U251 CNS. Further, the TGI with 786-0 renal stood at 2 µM; in the test on HCT-116 colon, 2.25 µM.

In the case of `CCOc1ccccc1NC(=O)CCC(=O)OC`, the TGI is over 66.7 µM in the test with CCRF-CEM leukemia; over 87.8 µM in the test with K-562 leukemia; over 100 µM with HCT-15 colon; over 78.8 µM with HL-60(TB) leukemia; over 100 µM with MALME-3M melanoma; over 100 µM in the test with TK-10 renal. The TGI in the test on U251 CNS was over 71.1 µM; with 786-0 renal, over 100 µM; with HCT-116 colon, over 100 µM.

Consider `CC1=CC2CC(C)=C(CC[C@]3(C)CC[C@H]([C@@H](C)C(=O)O)OO3)C(C)(C)C2CC1` (some centres not stated), for which the TGI is 0.493 µM in the test on CCRF-CEM leukemia; 0.471 µM in the test on K-562 leukemia; 2 µM in the test on HCT-15 colon; 0.106 µM in the test with HL-60(TB) leukemia; 2.02 µM with MALME-3M melanoma; 3.15 µM in the test on TK-10 renal. Further, the TGI in the test with U251 CNS worked out at 1.01 µM; with 786-0 renal, 4.78 µM; in the test with HCT-116 colon, 0.943 µM.

As for `COc1cc(CCc2cccnc2)cc(OC)c1OC`, the TGI in the test with CCRF-CEM leukemia, in the test on K-562 leukemia, in the test on HCT-15 colon, with HL-60(TB) leukemia, in the test with MALME-3M melanoma and in the test with TK-10 renal was over 100 µM throughout. The TGI with U251 CNS, in the test on 786-0 renal and in the test with HCT-116 colon was over 100 µM throughout.

As for `NNC(=S)N/N=C(\CCCC(=O)NCCc1ccccc1)CC(=O)c1ccccc1`, the TGI with HCT-15 colon, in the test with HL-60(TB) leukemia, in the test on MALME-3M melanoma, in the test on TK-10 renal, with U251 CNS and with 786-0 renal was over 100 µM in each case. This molecule also returned a TGI in the test on HCT-116 colon of over 100 µM.

Take `O=C(O)CN(c1ccccc1)S(=O)(=O)c1ccc(NC(=O)c2ccccc2)cc1`: the TGI with CCRF-CEM leukemia, with K-562 leukemia, with HCT-15 colon, in the test with HL-60(TB) leukemia, in the test with MALME-3M melanoma and with TK-10 renal was over 100 µM each time. Further, the TGI in the test with U251 CNS and in the test on 786-0 renal was over 100 µM each time.

As to `COC(=O)Cc1cc(OC)c(OC)cc1Br`, the TGI in the test with CCRF-CEM leukemia, with K-562 leukemia, in the test with HL-60(TB) leukemia, with MALME-3M melanoma, in the test on TK-10 renal and in the test on U251 CNS was over 100 µM in each case. In addition, the TGI in the test with 786-0 renal and with HCT-116 colon was over 100 µM each time.
